Results from ChEMBL document CHEMBL1201862, “PubChem BioAssay data set” (2004).
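1) Cells in 96-well plates. 2) Compound, 48 h, 5 concentrations. 3) Linear interpolation between surrounding doses. 4) Unreached endpoint = highest concentration. GI50 = concentration required for 50% inhibition of growth.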 Activity calls are given as the source filed them. Rule as the data show it: active = GI50 up to about 1.1 µM and inactive = higher.

Legend:
Test in all cases: growth of human tumour cells (NCI), 48 h
SK-OV-3 = system: SK-OV-3
OVCAR-8 = system: OVCAR-8
SF-268 = system: SF-268
HCT-15 = system: HCT-15
BT-549 = system: BT-549
SK-MEL-5 = system: SK-MEL-5
NCI-H226 = system: NCI-H226
MDA-N = system: MDA-N
SK-MEL-2 = system: SK-MEL-2
KM12 = system: KM12
UACC-257 = system: UACC-257
A549 = system: A549
Malme-3M = system: Malme-3M
NCI-H460 = system: NCI-H460
NCI-H522 = system: NCI-H522
T47D = system: T47D
SNB-75 = system: SNB-75
TK-10 = system: TK-10
CCRF-CEM = system: CCRF-CEM

| SMILES | GI50 (SK-OV-3) | GI50 (OVCAR-8) | GI50 (SF-268) | GI50 (HCT-15) | GI50 (BT-549) | GI50 (SK-MEL-5) | GI50 (NCI-H226) | GI50 (MDA-N) | GI50 (SK-MEL-2) | GI50 (KM12) | GI50 (UACC-257) | GI50 (A549) | GI50 (Malme-3M) | GI50 (NCI-H460) | GI50 (NCI-H522) | GI50 (T47D) | GI50 (SNB-75) | GI50 (TK-10) | GI50 (CCRF-CEM) |
| --- | --- | --- | --- | --- | --- | --- | --- | --- | --- | --- | --- | --- | --- | --- | --- | --- | --- | --- | --- |
| O=S1(=O)CCN(Cc2ccccn2)CC1 | > 100 µM (inactive) | > 100 µM (inactive) | > 100 µM (inactive) | > 100 µM | > 100 µM (inactive) | > 100 µM (inactive) | > 100 µM (inactive) | > 100 µM (inactive) | > 100 µM (inactive) | > 100 µM (inactive) | > 100 µM (inactive) | > 100 µM (inactive) | > 100 µM (inactive) | > 100 µM (inactive) | > 100 µM (inactive) | > 100 µM (inactive) | > 100 µM (inactive) | > 100 µM (inactive) | – |
| CC(=O)NC1C(OCc2ccccc2)OC(CO)C(O)C1OCC(=O)NC(C)C(=O)NC(CCC(=O)OCCNC(=O)c1cccc2cc3ccccc3nc12)C(N)=O (stereo not drawn) | 21.6 µM (inactive) | 18 µM (inactive) | 22.3 µM (inactive) | 13.9 µM | 20.3 µM (inactive) | 17 µM (inactive) | 18.5 µM (inactive) | 26.4 µM (inactive) | 26.4 µM (inactive) | 21.9 µM (inactive) | 28.2 µM (inactive) | 6.11 µM (inactive) | 15.6 µM (inactive) | 8.95 µM (inactive) | 16.8 µM (inactive) | 22.5 µM (inactive) | 20.5 µM (inactive) | 16.1 µM (inactive) | – |
| CC(C)(C)OC(=O)NC(Cc1ccc(OCc2ccccc2)cn1)C(=O)N1CCCCC1 (stereo not drawn) | 58.6 µM (inactive) | 35.6 µM (inactive) | 65.6 µM (inactive) | 37.6 µM | 24.5 µM (inactive) | 16.4 µM (inactive) | – | 28.1 µM (inactive) | 25.5 µM (inactive) | 30.9 µM (inactive) | 19.6 µM (inactive) | 49.7 µM (inactive) | 40.5 µM (inactive) | 33.7 µM (inactive) | 32.1 µM (inactive) | 12.1 µM (inactive) | 20.5 µM (inactive) | 37.1 µM (inactive) | 31.8 µM (inactive) |
| O=C(NCCCCNCCCNC(=O)c1cc(-c2ccccc2)nc2ccccc12)c1cc(-c2ccccc2)nc2ccccc12 | – | 1.69 µM (inactive) | 2.03 µM (inactive) | 1.82 µM | 9.66 µM (inactive) | 1.44 µM (inactive) | 1.78 µM (inactive) | 1.83 µM (inactive) | 1.91 µM (inactive) | 1.7 µM (inactive) | 1.73 µM (inactive) | 1.65 µM (inactive) | 1.78 µM (inactive) | 1.91 µM (inactive) | 1.7 µM (inactive) | 1.87 µM (inactive) | 1.84 µM (inactive) | 1.59 µM (inactive) | 1.62 µM (inactive) |
| Cc1cc(N2CCCCC2)nc2ccc(Cc3ccc4nc(N5CCCCC5)cc(C)c4c3)cc12 | > 100 µM (inactive) | > 100 µM (inactive) | > 100 µM (inactive) | 79.6 µM | > 100 µM (inactive) | 48.4 µM (inactive) | > 100 µM (inactive) | > 100 µM (inactive) | > 100 µM (inactive) | > 100 µM (inactive) | 53.6 µM (inactive) | > 100 µM (inactive) | > 100 µM (inactive) | > 100 µM (inactive) | 83.2 µM (inactive) | 60.7 µM (inactive) | > 100 µM (inactive) | > 100 µM (inactive) | – |
| Cc1ccn2c(CCc3nnc4cc(C)ccn34)nnc2c1 | > 100 µM (inactive) | > 100 µM (inactive) | > 100 µM (inactive) | > 100 µM | > 100 µM (inactive) | > 100 µM (inactive) | > 100 µM (inactive) | > 100 µM (inactive) | > 100 µM (inactive) | > 100 µM (inactive) | > 100 µM (inactive) | > 100 µM (inactive) | > 100 µM (inactive) | > 100 µM (inactive) | > 100 µM (inactive) | > 100 µM (inactive) | > 100 µM (inactive) | > 100 µM (inactive) | – |
